From patent publication US12419296B2, “Remote detection of pre-determined termite feeding activities in soil” (University of Florida Research Foundation, Inc., priority 2019, dated 2025)

Key:
rat [1] = details: cited from earlier work
rat [2] = test: rat oral LD50 (acute toxicity); type: in vivo; details: relative to soil termiticide fipronil

Structure (SMILES) | rat oral LD50 (rat [1]) | fold less toxic than fipronil (rat oral LD50) (rat [2]) [fold]
N#Cc1nn(-c2c(Cl)cc(C(F)(F)F)cc2Cl)c(N)c1[S+]([O-])C(F)(F)F (stereo not drawn) [fipronil] | 97 mg/kg | –
O=C(NC(=O)c1c(F)cccc1F)Nc1cc(Cl)c(OC(F)(F)C(F)C(F)(F)F)c(Cl)c1F (stereo not drawn) [noviflumuron] | > 3,160 mg/kg | 32
